Results from patent US11572590B2, “Methods for evaluating tumor cell spheroids using 3D microfluidic cell culture device” (Dana-Farber Cancer Institute, Inc., priority 2017, dated 2023).
Where two headings read alike, the source gives them in different places.

How the values were obtained:
Assay in all cases: SelectScreen Kinase Profiling, single point inhibition and IC50 for off-target kinases
Assay type in all cases: biochemical
off-target kinases [1] = target: off-target kinases (Homo sapiens, UniProt P07333); conditions: CSF1R (FMS), ATP Km app, ZLYTE
off-target kinases (Homo sapiens, UniProt P07333), sequence (P07333 20-972): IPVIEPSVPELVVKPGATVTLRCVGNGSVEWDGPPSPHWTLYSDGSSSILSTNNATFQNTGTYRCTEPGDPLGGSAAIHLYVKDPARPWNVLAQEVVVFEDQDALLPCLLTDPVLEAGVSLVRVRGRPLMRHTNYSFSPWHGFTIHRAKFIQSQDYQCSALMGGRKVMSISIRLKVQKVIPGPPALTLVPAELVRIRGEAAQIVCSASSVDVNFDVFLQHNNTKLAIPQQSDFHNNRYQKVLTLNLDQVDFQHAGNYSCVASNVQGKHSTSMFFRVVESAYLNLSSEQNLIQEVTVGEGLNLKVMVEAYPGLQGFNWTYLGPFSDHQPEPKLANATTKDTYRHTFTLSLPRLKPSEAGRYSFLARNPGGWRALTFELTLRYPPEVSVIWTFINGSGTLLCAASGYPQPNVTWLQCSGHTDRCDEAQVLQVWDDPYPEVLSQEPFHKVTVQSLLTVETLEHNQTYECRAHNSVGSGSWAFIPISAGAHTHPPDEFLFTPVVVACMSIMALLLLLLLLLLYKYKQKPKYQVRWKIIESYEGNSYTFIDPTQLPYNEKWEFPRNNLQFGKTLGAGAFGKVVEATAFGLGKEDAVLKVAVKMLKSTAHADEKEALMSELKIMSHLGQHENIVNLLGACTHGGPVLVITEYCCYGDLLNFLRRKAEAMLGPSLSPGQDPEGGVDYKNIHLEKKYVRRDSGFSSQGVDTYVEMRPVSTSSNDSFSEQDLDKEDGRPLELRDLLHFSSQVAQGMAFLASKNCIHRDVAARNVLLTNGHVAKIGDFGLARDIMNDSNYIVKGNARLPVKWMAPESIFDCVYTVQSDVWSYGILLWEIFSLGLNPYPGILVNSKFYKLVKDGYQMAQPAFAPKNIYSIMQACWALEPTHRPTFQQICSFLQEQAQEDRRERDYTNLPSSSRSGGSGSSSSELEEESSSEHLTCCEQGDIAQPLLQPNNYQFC

off-target kinases [2] = target: off-target kinases (Homo sapiens, UniProt P42356); conditions: PI4KA (PI4K alpha), Adapta, ATP 10
off-target kinases (Homo sapiens, UniProt P42356), sequence (P42356 whole entry): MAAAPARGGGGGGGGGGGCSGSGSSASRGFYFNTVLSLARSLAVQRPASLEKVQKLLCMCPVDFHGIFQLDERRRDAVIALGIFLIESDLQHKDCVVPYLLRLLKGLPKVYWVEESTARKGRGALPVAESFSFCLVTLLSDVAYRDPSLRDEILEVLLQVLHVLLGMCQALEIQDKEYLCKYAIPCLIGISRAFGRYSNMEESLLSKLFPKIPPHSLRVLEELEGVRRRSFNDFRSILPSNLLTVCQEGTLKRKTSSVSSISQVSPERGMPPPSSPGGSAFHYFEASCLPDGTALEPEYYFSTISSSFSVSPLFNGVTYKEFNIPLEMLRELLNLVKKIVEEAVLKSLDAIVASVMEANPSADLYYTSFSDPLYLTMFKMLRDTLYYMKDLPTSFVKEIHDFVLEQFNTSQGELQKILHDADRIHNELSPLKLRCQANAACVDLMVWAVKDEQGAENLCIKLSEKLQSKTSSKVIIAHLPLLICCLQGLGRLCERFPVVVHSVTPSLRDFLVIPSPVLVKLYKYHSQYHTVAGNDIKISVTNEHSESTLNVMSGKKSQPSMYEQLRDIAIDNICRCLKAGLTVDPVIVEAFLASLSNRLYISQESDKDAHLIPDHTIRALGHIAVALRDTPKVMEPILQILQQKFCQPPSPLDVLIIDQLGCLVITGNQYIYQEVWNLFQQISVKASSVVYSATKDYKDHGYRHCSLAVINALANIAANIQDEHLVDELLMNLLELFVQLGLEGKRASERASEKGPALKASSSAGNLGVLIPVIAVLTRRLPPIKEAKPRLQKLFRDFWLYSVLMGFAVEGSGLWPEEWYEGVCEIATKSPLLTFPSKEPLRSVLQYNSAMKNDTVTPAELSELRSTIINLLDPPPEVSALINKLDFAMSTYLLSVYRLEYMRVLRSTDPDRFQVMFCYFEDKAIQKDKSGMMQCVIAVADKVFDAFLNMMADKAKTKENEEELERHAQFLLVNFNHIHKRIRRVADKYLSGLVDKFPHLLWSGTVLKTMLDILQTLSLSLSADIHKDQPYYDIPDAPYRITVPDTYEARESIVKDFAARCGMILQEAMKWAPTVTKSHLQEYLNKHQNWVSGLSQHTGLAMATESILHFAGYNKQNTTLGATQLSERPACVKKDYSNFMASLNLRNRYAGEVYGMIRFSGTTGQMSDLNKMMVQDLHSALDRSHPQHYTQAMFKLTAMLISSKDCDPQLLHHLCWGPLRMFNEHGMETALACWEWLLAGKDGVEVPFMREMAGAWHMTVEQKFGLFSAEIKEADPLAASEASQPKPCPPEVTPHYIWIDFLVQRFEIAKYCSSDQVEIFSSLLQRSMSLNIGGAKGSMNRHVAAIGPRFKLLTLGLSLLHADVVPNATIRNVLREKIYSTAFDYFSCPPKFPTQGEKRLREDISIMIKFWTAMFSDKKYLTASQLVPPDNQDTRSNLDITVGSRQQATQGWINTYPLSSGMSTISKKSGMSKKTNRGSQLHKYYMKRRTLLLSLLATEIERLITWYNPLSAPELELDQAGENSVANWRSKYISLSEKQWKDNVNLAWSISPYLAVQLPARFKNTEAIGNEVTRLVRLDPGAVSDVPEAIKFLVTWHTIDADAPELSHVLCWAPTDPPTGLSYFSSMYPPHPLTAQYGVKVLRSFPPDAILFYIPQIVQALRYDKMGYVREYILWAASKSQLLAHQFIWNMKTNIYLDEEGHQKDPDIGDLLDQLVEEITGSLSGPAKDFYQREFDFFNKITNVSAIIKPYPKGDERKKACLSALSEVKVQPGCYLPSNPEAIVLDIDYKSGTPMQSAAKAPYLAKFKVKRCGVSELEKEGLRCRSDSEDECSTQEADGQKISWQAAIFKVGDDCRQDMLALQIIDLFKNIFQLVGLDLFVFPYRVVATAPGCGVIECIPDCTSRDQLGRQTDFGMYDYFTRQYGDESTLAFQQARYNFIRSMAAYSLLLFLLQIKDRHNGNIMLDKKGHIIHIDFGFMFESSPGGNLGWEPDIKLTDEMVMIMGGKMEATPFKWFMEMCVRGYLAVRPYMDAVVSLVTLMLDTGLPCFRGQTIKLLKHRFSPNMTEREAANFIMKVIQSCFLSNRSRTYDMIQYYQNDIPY

off-target kinases [3] = target: off-target kinases (Homo sapiens, UniProt P45984); conditions: MAPK9 (JNK2)
off-target kinases (Homo sapiens, UniProt P45984), sequence (P45984 whole entry): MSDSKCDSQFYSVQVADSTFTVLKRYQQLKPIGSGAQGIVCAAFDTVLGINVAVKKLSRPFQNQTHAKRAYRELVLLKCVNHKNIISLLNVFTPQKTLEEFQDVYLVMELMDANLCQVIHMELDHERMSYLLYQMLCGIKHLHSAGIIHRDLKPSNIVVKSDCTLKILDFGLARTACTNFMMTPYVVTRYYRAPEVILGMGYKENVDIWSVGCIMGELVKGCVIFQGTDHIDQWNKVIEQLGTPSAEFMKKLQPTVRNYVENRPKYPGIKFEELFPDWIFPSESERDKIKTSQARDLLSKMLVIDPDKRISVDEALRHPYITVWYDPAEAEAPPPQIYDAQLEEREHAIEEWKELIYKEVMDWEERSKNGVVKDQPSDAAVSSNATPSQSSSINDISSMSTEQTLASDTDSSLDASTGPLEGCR

off-target kinases [4] = target: off-target kinases (Homo sapiens, UniProt P50613); conditions: CDK7/cyclin H/MNAT1, Adapta, ATP Km app
off-target kinases (Homo sapiens, UniProt P50613), sequence (P50613 whole entry): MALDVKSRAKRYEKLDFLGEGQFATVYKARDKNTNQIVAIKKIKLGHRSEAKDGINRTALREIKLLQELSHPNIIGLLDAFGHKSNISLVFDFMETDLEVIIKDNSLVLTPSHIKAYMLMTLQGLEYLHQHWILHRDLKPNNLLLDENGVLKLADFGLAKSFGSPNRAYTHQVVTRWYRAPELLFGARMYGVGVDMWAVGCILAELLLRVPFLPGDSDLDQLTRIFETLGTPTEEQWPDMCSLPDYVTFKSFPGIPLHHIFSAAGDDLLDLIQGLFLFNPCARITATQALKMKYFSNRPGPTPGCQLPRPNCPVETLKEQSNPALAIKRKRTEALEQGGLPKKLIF

off-target kinases [5] = target: T1, off-target kinases (Homo sapiens, UniProt P54762); conditions: EPHB1, ZLYTE, ATP Km app
T1 sequence (P54762 18-984): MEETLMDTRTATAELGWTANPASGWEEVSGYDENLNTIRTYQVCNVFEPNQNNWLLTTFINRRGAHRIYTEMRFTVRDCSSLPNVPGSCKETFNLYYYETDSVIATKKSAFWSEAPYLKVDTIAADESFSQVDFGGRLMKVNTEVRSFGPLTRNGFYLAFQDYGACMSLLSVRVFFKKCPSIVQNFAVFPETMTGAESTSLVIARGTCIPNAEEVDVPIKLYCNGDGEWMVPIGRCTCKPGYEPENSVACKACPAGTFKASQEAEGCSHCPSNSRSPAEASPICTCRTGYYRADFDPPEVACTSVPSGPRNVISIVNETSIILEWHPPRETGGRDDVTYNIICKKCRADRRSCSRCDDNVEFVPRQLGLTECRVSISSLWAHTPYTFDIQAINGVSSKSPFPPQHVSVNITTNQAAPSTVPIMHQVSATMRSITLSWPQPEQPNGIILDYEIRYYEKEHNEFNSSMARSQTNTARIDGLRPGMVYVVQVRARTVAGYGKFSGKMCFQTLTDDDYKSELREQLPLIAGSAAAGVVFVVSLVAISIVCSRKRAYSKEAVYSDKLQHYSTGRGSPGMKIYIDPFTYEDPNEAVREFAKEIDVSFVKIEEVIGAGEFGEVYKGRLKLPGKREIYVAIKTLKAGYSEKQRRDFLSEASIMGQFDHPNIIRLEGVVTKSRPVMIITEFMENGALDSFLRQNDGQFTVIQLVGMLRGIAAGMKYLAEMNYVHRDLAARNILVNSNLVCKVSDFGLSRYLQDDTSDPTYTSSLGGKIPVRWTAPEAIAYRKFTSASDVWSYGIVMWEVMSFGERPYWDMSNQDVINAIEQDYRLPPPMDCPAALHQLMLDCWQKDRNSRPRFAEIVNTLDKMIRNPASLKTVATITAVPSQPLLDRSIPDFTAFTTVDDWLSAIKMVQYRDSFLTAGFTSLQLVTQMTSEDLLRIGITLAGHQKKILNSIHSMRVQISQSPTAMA

off-target kinases [6] = target: off-target kinases (Homo sapiens, UniProt Q96RR4); conditions: CAMKK2 (CaMKK beta), LanthaScreen Binding
off-target kinases (Homo sapiens, UniProt Q96RR4), sequence (Q96RR4 whole entry): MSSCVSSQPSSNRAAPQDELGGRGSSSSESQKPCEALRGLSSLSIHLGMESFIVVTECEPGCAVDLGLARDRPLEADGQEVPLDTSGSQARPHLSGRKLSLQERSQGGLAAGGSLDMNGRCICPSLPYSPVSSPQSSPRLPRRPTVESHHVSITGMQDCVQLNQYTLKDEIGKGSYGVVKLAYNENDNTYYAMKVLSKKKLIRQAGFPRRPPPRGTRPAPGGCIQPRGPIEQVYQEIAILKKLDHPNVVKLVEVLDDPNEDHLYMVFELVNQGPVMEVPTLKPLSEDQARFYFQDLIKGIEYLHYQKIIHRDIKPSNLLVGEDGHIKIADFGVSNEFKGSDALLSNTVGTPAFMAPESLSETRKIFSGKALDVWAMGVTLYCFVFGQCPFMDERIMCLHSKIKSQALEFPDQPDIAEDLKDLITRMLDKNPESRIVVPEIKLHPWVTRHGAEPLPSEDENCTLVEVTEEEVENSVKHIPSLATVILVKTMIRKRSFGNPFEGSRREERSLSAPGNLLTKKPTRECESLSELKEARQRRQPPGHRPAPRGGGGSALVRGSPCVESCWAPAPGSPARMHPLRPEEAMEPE

## N#Cc1cc(-c2ncnc(Nc3ccc(N4CCN(C5COC5)CC4)cc3)n2)ccc1OC1CCOCC1 [Compound 1, 5-(4-((4-(4-(oxetan-3-yl)piperazin-1-yl)phenyl)amino)-1,3,5-triazin-2-yl)-2-((tetrahydro-2H-pyran-4-yl)oxy)benzonitrile]
off-target kinases [1]; read-out: % Inhibition 1
  inhibition: 91%
off-target kinases [1]; read-out: % Inhibition 2
  inhibition: 96%
off-target kinases [1]; read-out: % Inhibition Avg
  inhibition: 93%
off-target kinases [2]; read-out: % Inhibition 1
  inhibition: 3%
off-target kinases [2]; read-out: % Inhibition 2
  inhibition: -3%
off-target kinases [2]; read-out: % Inhibition Avg
  inhibition: 0%
off-target kinases [3]; LanthaScreen Binding, read-out: % Inhibition 1
  inhibition: 12%
off-target kinases [3]; LanthaScreen Binding, read-out: % Inhibition 2
  inhibition: 14%
off-target kinases [3]; LanthaScreen Binding, read-out: % Inhibition Avg
  inhibition: 13%
off-target kinases [3]; ZLYTE, ATP 100, read-out: % Inhibition 1
  inhibition: 12%
off-target kinases [3]; ZLYTE, ATP 100, read-out: % Inhibition 2
  inhibition: 21%
off-target kinases [3]; ZLYTE, ATP 100, read-out: % Inhibition Avg
  inhibition: 16%
off-target kinases [4]; read-out: % Inhibition 1
  inhibition: 17%
off-target kinases [4]; read-out: % Inhibition 2
  inhibition: 14%
off-target kinases [4]; read-out: % Inhibition Avg
  inhibition: 15%
off-target kinases [5]; read-out: % Inhibition 1
  inhibition: 34%
off-target kinases [5]; read-out: % Inhibition 2
  inhibition: 31%
off-target kinases [5]; read-out: % Inhibition Avg
  inhibition: 33%
off-target kinases [6]; read-out: % Inhibition 1
  inhibition: 7%
off-target kinases [6]; read-out: % Inhibition 2
  inhibition: 9%
off-target kinases [6]; read-out: % Inhibition Avg
  inhibition: 8%
